In brackets after ≈: the same amount, converted by molar mass.
Key:
Type in all cases: functional
Candida albicans = assay: Antimicrobial activity against Candida albicans ATCC 90029 after 24 hrs by microbroth dilution method; settings: ATCC 90029, 24 h
Micrococcus luteus = assay: Antimicrobial activity against Micrococcus luteus ATCC 4698 after 24 hrs by microbroth dilution method; settings: NCTC 2665, 24 h
Staphylococcus aureus [1] = assay: Antimicrobial activity against Staphylococcus aureus ATCC 25923 after 24 hrs by microbroth dilution method; settings: ATCC 25923, 24 h
Saccharomyces cerevisiae = assay: Antimicrobial activity against Saccharomyces cerevisiae ATCC 9763 after 24 hrs by microbroth dilution method; settings: ATCC 9763, 24 h
Bacillus spizizenii = assay: Antimicrobial activity against Bacillus subtilis ATCC 6633 after 24 hrs by microbroth dilution method; settings: ATCC 6633, 24 h
Candida = assay: Antimicrobial activity against Candida mycoderma after 24 hrs by microbroth dilution method
Pseudomonas aeruginosa = assay: Antimicrobial activity against Pseudomonas aeruginosa ATCC 27853 after 24 hrs by microbroth dilution method; settings: ATCC 27853, 24 h
Cyberlindnera jadinii = assay: Antimicrobial activity against Candida utilis ATCC 9950 after 24 hrs by microbroth dilution method; settings: Williopsis jadinii, ATCC 9950, 24 h
Escherichia coli = assay: Antimicrobial activity against Escherichia coli […] after 24 hrs by microbroth dilution method
Proteus vulgaris = assay: Antimicrobial activity against Proteus vulgaris ATCC 8427 after 24 hrs by microbroth dilution method; settings: ATCC 8427, 24 h
Staphylococcus aureus [2] = assay: Antimicrobial activity against methicillin-resistant Staphylococcus aureus N315 after 24 hrs by microbroth dilution method; settings: N315, 24 h
Shigella dysenteriae [3] = assay: Antimicrobial activity against Shigella dysenteriae ATCC 51252 after 24 hrs by microbroth dilution method; settings: ATCC 51252, 24 h
Shigella dysenteriae [4] = assay: Ratio of chloromycin MIC to compound MIC for Shigella dysenteriae ATCC 51252
Shigella dysenteriae [5] = assay: Ratio of berberine MIC to compound MIC for Shigella dysenteriae ATCC 51252

Fc1ccc(CN(CCBr)CCSc2nc3ccccc3[nH]2)c(F)c1
MIC80 (Candida albicans): > 512 µg/mL | MIC (Micrococcus luteus): > 512 µg/mL | MIC (Staphylococcus aureus [1]): > 512 µg/mL | MIC80 (Saccharomyces cerevisiae): 512 µg/mL (≈ 1200 µM) | MIC (Bacillus spizizenii): > 512 µg/mL | MIC80 (Candida): > 512 µg/mL | MIC (Pseudomonas aeruginosa): > 512 µg/mL | MIC80 (Cyberlindnera jadinii): 512 µg/mL (≈ 1200 µM) | MIC (Escherichia coli): > 512 µg/mL | MIC (Proteus vulgaris): > 512 µg/mL | MIC (Staphylococcus aureus [2]): > 512 µg/mL | MIC (Shigella dysenteriae [3]): > 512 µg/mL

OC(Cn1cncn1)(Cn1cncn1)c1ccc(F)cc1F [FLUCONAZOLE]
MIC80 (Candida albicans): 1 µg/mL (≈ 3.27 µM) | MIC80 (Saccharomyces cerevisiae): 16 µg/mL (≈ 52.2 µM) | MIC80 (Candida): 4 µg/mL (≈ 13.1 µM) | MIC80 (Cyberlindnera jadinii): 8 µg/mL (≈ 26.1 µM)

COc1ccc2cc3[n+](cc2c1OCCN(CCn1cncn1)Cc1ccccc1Cl)CCc1cc2c(cc1-3)OCO2.[Cl-]
MIC80 (Candida albicans): 16 µg/mL | MIC (Micrococcus luteus): 32 µg/mL | MIC80 (Saccharomyces cerevisiae): 16 µg/mL | MIC (Bacillus spizizenii): 8 µg/mL | MIC80 (Candida): 8 µg/mL | MIC80 (Cyberlindnera jadinii): 32 µg/mL

COc1ccc2cc3[n+](cc2c1OCCN(CCn1cncn1)Cc1cccc(F)c1)CCc1cc2c(cc1-3)OCO2.[Cl-]
MIC80 (Candida albicans): 4 µg/mL | MIC (Micrococcus luteus): 16 µg/mL | MIC80 (Saccharomyces cerevisiae): 16 µg/mL | MIC (Bacillus spizizenii): 8 µg/mL | MIC80 (Candida): 4 µg/mL | MIC80 (Cyberlindnera jadinii): 8 µg/mL

Clc1cccc(CN(CCBr)CCn2cncn2)c1
MIC80 (Candida albicans): 64 µg/mL (≈ 186 µM) | MIC (Micrococcus luteus): 64 µg/mL (≈ 186 µM) | MIC80 (Saccharomyces cerevisiae): 128 µg/mL (≈ 372 µM) | MIC (Bacillus spizizenii): 256 µg/mL (≈ 745 µM) | MIC80 (Candida): 256 µg/mL (≈ 745 µM) | MIC80 (Cyberlindnera jadinii): 256 µg/mL (≈ 745 µM)

Clc1ccc(CN(CCBr)CCn2cncn2)cc1Cl
MIC80 (Candida albicans): 32 µg/mL (≈ 84.6 µM) | MIC (Micrococcus luteus): 32 µg/mL (≈ 84.6 µM) | MIC80 (Saccharomyces cerevisiae): 128 µg/mL (≈ 339 µM) | MIC (Bacillus spizizenii): 256 µg/mL (≈ 677 µM) | MIC80 (Candida): 256 µg/mL (≈ 677 µM) | MIC80 (Cyberlindnera jadinii): 64 µg/mL (≈ 169 µM)

COc1ccc2cc3[n+](cc2c1OCCN(CCn1cncn1)Cc1ccc(Cl)c(Cl)c1)CCc1cc2c(cc1-3)OCO2.[Cl-]
MIC80 (Candida albicans): 8 µg/mL | MIC (Micrococcus luteus): 16 µg/mL | MIC80 (Saccharomyces cerevisiae): 32 µg/mL | MIC (Bacillus spizizenii): 8 µg/mL | MIC80 (Candida): 4 µg/mL | MIC80 (Cyberlindnera jadinii): 32 µg/mL

Clc1ccc(CN(CCBr)CCn2cncn2)c(Cl)c1
MIC80 (Candida albicans): 32 µg/mL (≈ 84.6 µM) | MIC (Micrococcus luteus): 32 µg/mL (≈ 84.6 µM) | MIC80 (Saccharomyces cerevisiae): 256 µg/mL (≈ 677 µM) | MIC (Bacillus spizizenii): 256 µg/mL (≈ 677 µM) | MIC80 (Candida): 256 µg/mL (≈ 677 µM) | MIC80 (Cyberlindnera jadinii): 256 µg/mL (≈ 677 µM)

COc1ccc2cc3[n+](cc2c1OCCN(CCn1nnc2ccccc21)Cc1ccc(F)cc1F)CCc1cc2c(cc1-3)OCO2.[Cl-]
MIC80 (Candida albicans): > 512 µg/mL | MIC (Micrococcus luteus): 128 µg/mL | MIC (Staphylococcus aureus [1]): 64 µg/mL | MIC80 (Saccharomyces cerevisiae): 16 µg/mL | MIC (Bacillus spizizenii): 128 µg/mL | MIC80 (Candida): > 512 µg/mL | MIC (Pseudomonas aeruginosa): 64 µg/mL | MIC80 (Cyberlindnera jadinii): 32 µg/mL | MIC (Escherichia coli): 128 µg/mL | MIC (Proteus vulgaris): 128 µg/mL | MIC (Staphylococcus aureus [2]): 64 µg/mL | MIC (Shigella dysenteriae [3]): 32 µg/mL

Clc1ccccc1CN(CCBr)CCn1cncn1
MIC80 (Candida albicans): 64 µg/mL (≈ 186 µM) | MIC (Micrococcus luteus): 64 µg/mL (≈ 186 µM) | MIC80 (Saccharomyces cerevisiae): 256 µg/mL (≈ 745 µM) | MIC (Bacillus spizizenii): 256 µg/mL (≈ 745 µM) | MIC80 (Candida): 256 µg/mL (≈ 745 µM) | MIC80 (Cyberlindnera jadinii): 128 µg/mL (≈ 372 µM)

COc1ccc2cc3[n+](cc2c1OCCN(CCn1cnc2cc(C)c(C)cc21)Cc1ccc(F)cc1F)CCc1cc2c(cc1-3)OCO2.[Cl-]
MIC80 (Candida albicans): 32 µg/mL | MIC (Micrococcus luteus): 16 µg/mL | MIC (Staphylococcus aureus [1]): 32 µg/mL | Ratio (Shigella dysenteriae [4]): 8 | MIC80 (Saccharomyces cerevisiae): 16 µg/mL | MIC (Bacillus spizizenii): 16 µg/mL | MIC80 (Candida): 16 µg/mL | MIC (Pseudomonas aeruginosa): 8 µg/mL | Ratio (Shigella dysenteriae [5]): 64 | MIC80 (Cyberlindnera jadinii): 16 µg/mL | MIC (Escherichia coli): 32 µg/mL | MIC (Proteus vulgaris): 8 µg/mL | MIC (Staphylococcus aureus [2]): 32 µg/mL | MIC (Shigella dysenteriae [3]): 4 µg/mL

Fc1ccccc1CN(CCBr)CCn1cncn1
MIC80 (Candida albicans): 32 µg/mL (≈ 97.8 µM) | MIC (Micrococcus luteus): 64 µg/mL (≈ 196 µM) | MIC80 (Saccharomyces cerevisiae): 64 µg/mL (≈ 196 µM) | MIC (Bacillus spizizenii): 256 µg/mL (≈ 782 µM) | MIC80 (Candida): 256 µg/mL (≈ 782 µM) | MIC80 (Cyberlindnera jadinii): 128 µg/mL (≈ 391 µM)

Cc1cc2ncn(CCN(CCBr)Cc3ccc(F)cc3F)c2cc1C
MIC80 (Candida albicans): 128 µg/mL (≈ 303 µM) | MIC (Micrococcus luteus): 64 µg/mL (≈ 152 µM) | MIC (Staphylococcus aureus [1]): 64 µg/mL (≈ 152 µM) | MIC80 (Saccharomyces cerevisiae): 256 µg/mL (≈ 606 µM) | MIC (Bacillus spizizenii): 32 µg/mL (≈ 75.8 µM) | MIC80 (Candida): 64 µg/mL (≈ 152 µM) | MIC (Pseudomonas aeruginosa): 64 µg/mL (≈ 152 µM) | MIC80 (Cyberlindnera jadinii): 128 µg/mL (≈ 303 µM) | MIC (Escherichia coli): 128 µg/mL (≈ 303 µM) | MIC (Proteus vulgaris): 128 µg/mL (≈ 303 µM) | MIC (Staphylococcus aureus [2]): 128 µg/mL (≈ 303 µM) | MIC (Shigella dysenteriae [3]): 16 µg/mL (≈ 37.9 µM)

COc1ccc2cc3[n+](cc2c1OC)CCc1cc2c(cc1-3)OCO2 [BERBERINE]
MIC80 (Candida albicans): > 512 µg/mL | MIC (Micrococcus luteus): > 512 µg/mL | MIC80 (Saccharomyces cerevisiae): 128 µg/mL | MIC (Bacillus spizizenii): > 512 µg/mL | MIC80 (Candida): 128 µg/mL | MIC80 (Cyberlindnera jadinii): 256 µg/mL

CCn1cc(C(=O)O)c(=O)c2cc(F)c(N3CCNCC3)cc21 [NORFLOXACIN]
MIC (Micrococcus luteus): 2 µg/mL (≈ 6.26 µM) | MIC (Bacillus spizizenii): 1 µg/mL (≈ 3.13 µM)
